{"source": "patent US12234223B2", "about": "“Phthalazinone compound, and preparation method therefor and medical use thereof” (SHANGHAI JEMINCARE PHARMACEUTICALS CO., LTD, priority 2020, dated 2025)", "test": "In-vivo pharmacokinetics in rats, oral administration", "set-up": "species or system male SD rats", "conditions": "for AUC(0-inf) / Cmax / half-life: male, SD, rat, oral 10 mg/kg, plasma; for F: oral 10 mg/kg vs intravenous 1 mg/Kg", "description": "In this experimental example, the in-vivo pharmacokinetic evaluation was made for rats by intravenous injection and oral administration.\nExperimental methods and conditions: male SD rats, 6 to 8 weeks old; all animals had free access to food and water; 5 min, 15 min, 30 min, 1 hr, 2 hr, 4 hr, 8 hr, 24 hr and 48 hr after the rats were subjected to a single intravenous injection of 1 mg/Kg of a compound to be tested (solvent 5% DMSO/15% Solutol/80% Saline), or 15 min, 30 min, 1 hr, 2 hr, 4 hr, 6 hr, 8 hr, 24 hr and 48 hr after the rats were subjected to oral intragastric administration of 10 mg/kg (solvent 5% DMSO/10% Solutol/85% Saline), blood was collected from orbits, not less than 50 μL of each sample was collected, and heparin sodium was used for anticoagulation; the collected samples were placed on ice, and the plasma was centrifugally separated within 1 hour for testing. The drug concentration in the plasma was detected by liquid chromatography tandem mass spectrometry (LC/MS/MS), and the pharmacokinetic parameters were calculated by Phoenix WinNonlin software. Embodiment 82 in CN110612294 A was taken as a control sample 1."}
{"smiles": "CC1(C)[C@H](NC(=O)c2ccc(N3CCC(CN4CCN(c5ccc6c(=O)n(C7CCC(=O)NC7=O)nc(F)c6c5)CC4)CC3)cc2)C(C)(C)[C@H]1Oc1ccc(C#N)c(Cl)c1", "note": "(stereo partly drawn) [Compound 29]", "values": [{"measurement": "AUC(0-inf)", "value": 6200, "unit": "ng·h/mL"}, {"measurement": "Cmax", "value": 253, "unit": "ng/mL"}, {"measurement": "half-life", "value": 13.4, "unit": "h"}, {"measurement": "F", "value": 11.9, "unit": "%"}]}
{"smiles": "CC1(C)[C@H](NC(=O)c2ccc(N3CCC(CN4CCN(c5ccc6c(=O)n(C7CCC(=O)NC7=O)ncc6c5)CC4)CC3)cc2)C(C)(C)[C@H]1Oc1ccc(C#N)c(Cl)c1", "note": "(stereo partly drawn) [Compound 1]", "values": [{"measurement": "AUC(0-inf)", "value": 2650, "unit": "ng·h/mL"}, {"measurement": "Cmax", "value": 147, "unit": "ng/mL"}, {"measurement": "half-life", "value": 7.62, "unit": "h"}, {"measurement": "F", "value": 11.9, "unit": "%"}]}
{"smiles": "CC1(C)[C@H](NC(=O)c2ccc(N3CCC(CN4CCN(c5ccc6c(=O)n([C@H]7CCC(=O)NC7=O)ncc6c5)CC4)CC3)cc2)C(C)(C)[C@H]1Oc1ccc(C#N)c(Cl)c1", "note": "[Compound 28A]", "values": [{"measurement": "AUC(0-inf)", "value": 3210, "unit": "ng·h/mL"}, {"measurement": "Cmax", "value": 173, "unit": "ng/mL"}, {"measurement": "half-life", "value": 8.28, "unit": "h"}, {"measurement": "F", "value": 5.13, "unit": "%"}]}
